Assay results taken from patent US20060205761A1, “Ccr-2 antagonists for treatment of neuropathic pain” (priority 2003, published 2006).

Experiments:
[1] = tested on: mechanical allodynia induced by MCP-1; experiment: Intrathecal MCP-1 injection and co-injection with CCR-2 antagonist, 50% paw withdrawal threshold; type: in vivo; conditions: rat
Method: Intrathecal administration by intrathecal catheter: Using Hamilton syringe to inject each rat: 5 μl compound or vehicle, 1 μl air and 9 μl vehicle. Intrathecal catheterization. After shaving the back of the head and neck, the rats were placed in a stereotaxic headholder with the head flexed forward. A 8-cm saline filled polyethylene tube (PE5) was placed into the subarachnoid space through a small puncture and threaded caudally so that the caudal tip rested on the rostral edge of the lumbar enlargement. The rats were allowed to recover for a minimum of 2-3 days prior to further study. […] Animals with impaired motor function (e.g. hind limb paralysis) were euthanized. Compounds: A CCR-2 antagonist having the formula: [drawing 1085] (CCR-2 Antagonist “A”) was tested in the formalin test and the mouse nerve injury model. A second CCR-2 antagonist: [drawing 1086] (CCR-2 Antagonist “B”) was tested in the formalin test only. Both compounds were diluted in 0.5% methylcellulose and were dosed p.o. at a volume of 0.2 ml per 30 g body-weight. For the formalin test, compounds were administered 60 min before the formalin injection. For the nerve injury model, Compound A was tested 4-5 days after surgery. A third CCR-2 antagonist having the formula: [drawing 1087] […] At Day 0, 1, 3, 4, 7, 10, 11, 15, 18 and 21 post dosing, 50% paw withdrawal threshold was determined.

[2] = tested on: mechanical allodynia after spinal nerve ligation; experiment: L5-L6 spinal nerve ligation (Chung) model, 50% paw withdrawal threshold / % MPE; type: in vivo, Sprague-Dawley rat; conditions: rat
Method: Intragastrical administration by gavage: Compound and vehicle were given via a 15 G Gavage needle at 1 ml/100 g of the rat body weight. L5-L6 Spinal Nerve Ligation (Chung): Male Sprague-Dawley rats (Taconic) were anesthetized with 2% gaseous isofluorane (For induction 3-5% and O2 […], for maintenance 2-3% and O2 […]). Following dorsal skin incision and muscle separation, the posterior interarticular traverse process of L/S1 was exposed and carefully removed with a mircro Rongeur. The L5 and L6 spinal nerves were tightly ligated by a square knot with 6-0 silk thread. The muscles were closed with 4-0 absorbable sutures and the skin was closed with wound clips. […] Animals were pre-tested and non-sensitive rats (50% paw withdrawal threshold above 3 g) were also excluded from compound testing. The results were expressed either as 50% paw withdrawal threshold, or in % maximal possible effect (MPE). MPE was calculated as follows: [formula] Pre-operation cut-off value is 15 grams. CCR-2 Antagonist C was evaluated in a multiple dosing study for 5 days. […] 50% paw withdrawal threshold following multiple dosing (3 mg/kg, PO, b.i.d.) of CCR-2 Antagonist C. Five days post spinal nerve ligation, the animals were tested before and 1 hr after dosing at 7 a.m. each day for 5 days. Data=Mean±SEM, n=10 rats. Efficacy: % MPE. […]

[3] = tested on: CFA-induced weight bearing deficit; experiment: Rat Complete Freund's Adjuvant (CFA) model, weight bearing; type: in vivo, Sprague-Dawley rat
Method: Complete Freund's Adjuvant (CFA): Male Sprague-Dawley rats (Charles River) were injected with CFA (150 μl) intraplantar into their left paw. This study included 3 groups: (1) CCR-2 Antagonist C at 3 mg/kg bid started 2 hours before CFA injection, (2) vehicle group and (3) CCR-2 Antagonist C at 10 mg/kg given on day 3 post-CFA (rats received vehicle on day 0-2)(n=6 per group). Rats were dosed for 3.5 days bid. Before the morning dose and two hours after it, weight bearing and paw size were measured. On the final day of the study (day 3 post-CFA) in addition to weight bearing, paw pressure threshold was also evaluated at 2 hr post dose.

[4] = tested on: formalin-induced pain behavior; experiment: Mouse formalin test; type: in vivo; conditions: for decrease of pain behavior in the formalin test: 60 min before formalin
Method: Formalin Test: For 4 days prior to testing, mice were acclimated for 2 hours every day on the test platform. On the day of study, mice were placed for 1 hour on the test platform, and subsequently were administered 10 μl of 2% formalin in the plantar surface of the left paw. The time mice spent either licking or lifting the injected paw was recorded over 2-minute periods at 5-minute intervals for 50 minutes. […] Phase 1 (0-10 min post-injection) is considered to reflect acute pain, whereas phase 2 (10-50 min post-injection) reflects chronic, inflammatory pain. The formalin test: a quantitative study of the analgesic effects of morphine, meperidine, and brain stem stimulation in rats and cats. Pain. December 1977;4(2):161-74) Intragastrical administration by gavage: Compound and vehicle were given via a 18 G Gavage needle at 0.2 ml/30 g of the mouse body weight. Compounds: A CCR-2 antagonist having the formula: [drawing 1085] (CCR-2 Antagonist “A”) was tested in the formalin test and the mouse nerve injury model. A second CCR-2 antagonist: [drawing 1086] (CCR-2 Antagonist “B”) was tested in the formalin test only. Both compounds were diluted in 0.5% methylcellulose and were dosed p.o. at a volume of 0.2 ml per 30 g body-weight. For the formalin test, compounds were administered 60 min before the formalin injection. For the nerve injury model, Compound A was tested 4-5 days after surgery. A third CCR-2 antagonist having the formula: [drawing 1087] (CCR-2 Antagonist “C”) was tested in the rat nerve model, MCP-1 co-administration model, the carrageenan model and the CFA model. The compound was dissolved into ethanol/H2O=9/95 prior to testing.

Which results are given for `CC(C)[C@]1(C(=O)N2CCc3ncc(C(F)(F)F)cc3C2)CC[C@@H](NC2CCOC[C@H]2C)C1` (some centres unmarked) [CCR-2 Antagonist C]?
anti-allodynic effect (50% paw withdrawal threshold) of co-injection with MCP-1 ([1]; 20 μg/rat via intrathecal catheter with MCP-1 750 ng/rat, day 4, 7, 10 and 11): partial preemptive anti-allodynic effect; effect of co-injection with MCP-1 on development of mechanical allodynia ([1]; intrathecal co-injection with MCP-1): inhibited and delayed the development of mechanical allodynia; efficacy in multiple dosing study (50% paw withdrawal threshold) ([2]; 3 mg/kg PO b.i.d. for 5 days): significant efficacy; Efficacy: % MPE, day from which efficacy is significant ([2]; 3 mg/kg PO b.i.d., tested before and 1 hr after dosing each day for 5 days): Significant efficacy was observed starting at day 3; effect on weight bearing ([3]; 3 mg/kg bid, day 2 and 3): significantly reversed weight bearing; effect on weight bearing on the affected limb ([3]; 10 mg/kg, day 3): significantly reversed weight bearing

What does the source list for `CC(C)[C@]1(C(=O)N2CCc3ccc(C(F)(F)F)cc3C2)CCC(N[C@H]2CCOC[C@H]2C)C1` (some centres unmarked) [CCR-2 Antagonist A]?
effect in the formalin test versus vehicle ([4]; 1 mg/kg p.o.): No difference with the vehicle group; decrease of pain behavior in the formalin test ([4]; 3 mg/kg p.o.): 50%; effect on phase 2 times of the formalin test ([4]; 3 mg/kg p.o.): significantly decreased; effect on phase 2 times of the formalin test ([4]; 30 mg/kg p.o.): significantly decreased; effect on phase 1 of the formalin test ([4]; p.o., phase 1): no effect

Which results are given for `CO[C@H]1COCC[C@H]1NC1CC[C@@](C(=O)N2CCc3ncc(C(F)(F)F)cc3C2)(C(C)C)C1` (some centres unmarked) [CCR-2 Antagonist B]?
decrease of phase 2 of the formalin test ([4]; 10 mg/kg): 20%; decrease of pain behavior in the formalin test ([4]; 30 mg/kg p.o.): 30%; decrease of phase 2 of the formalin test ([4]; 30 mg/kg): 30%
